Laboratory results: patent US8871933B2, “Purified pyrroloquinolinyl-pyrrolidine-2,5-dione compositions and methods for preparing and using same” (ArQule, Inc., priority 2009, dated 2014)
pIC50: −log10 of the molar value.

Columns and labels:
MDA-MB-231 cells = assay: Colony formation / surviving fraction assay; type: cell-based; conditions: Homo sapiens, two days incubation, colonies counted two weeks later, read-out: IC50 (surviving fraction equaled 50)
Method: MDA-MB-231 cells (ATCC #HTB-26), grown in DMEM plus 15% heat inactivated fetal bovine serum plus 10 mM HEPES pH 7.5, were plated in 60 mm^2 plates (2×10^5 cells per plate). After two days candidate compounds in DMSO at various concentrations were diluted in media and added to individual plates such that the final DMSO concentration in the cell culture media was 0.1%. After two days incubation the culture was trypsinized, cells were washed with media, counted using a hemocytometer and 500 cells, including cell bodies, were plated in 100 mm^2 plates in media. Two weeks later the media was removed and the cell colonies were fixed with methanol for 10 minutes, stained with 1% crystal violet for 10 minutes, washed with water and air dried. Cell colonies were visually counted when there were greater then 50 cells present per colony. Plating efficiency was defined as the average number of colonies formed divided by 500. The surviving fraction was defined as the plating efficiency of a candidate compound divided by the plating efficiency of DMSO multiplied by 100. For candidate compound titrations, the IC50 value was determined by fitting the equation y=Ae^Bx to the data points and extrapolating the concentration where surviving fraction equaled 50. […]

[1] = tested on: A549 human lung cancer cells; assay: Annexin V / propidium iodide apoptosis staining; type: cell-based; design: dose or concentration left out as unconfirmed
Method: A549 human lung cancer cells in a 96-well plate (Costar 3603, 5,000/well) were treated with either A) DMSO as a control; B) […] (−)-trans-3-(5,6-dihydro-4H-pyrrolo[3,2,1-ij]quinolin-1-yl)-4-(1H-indol-3-yl)pyrrolidine-2,5-dione for 38 hours before addition of 1:200 fluorescent Annexin V (green) and 1:500 Propidium iodide (magenta, final concentration of […]). The labeling procedure was allowed to process at 37° C. for 20 minutes followed by image acquisition and analysis using an IC100 Image Cytometer (Beckman Coulter, Inc) with 10× amplification. To determine whether (−)-trans-3-(5,6-dihydro-4H-pyrrolo[3,2,1-ij]quinolin-1-yl)-4-(1H-indol-3-yl)pyrrolidine-2,5-dione works primarily through a cytostatic or apoptotic mechanism, cancer cells exposed to (−)-trans-3-(5,6-dihydro-4H-pyrrolo[3,2,1-ij]quinolin-1-yl)-4-(1H-indol-3-yl)pyrrolidine-2,5-dione were stained with fluorescently labeled Annexin V (green fluorescence) and propidium iodide (bright magenta fluorescence). Annexin V is a well-validated reagent that specifically binds with high affinity to externalized membrane phosphatidylserine, an early marker of the onset of apoptosis, while propidium iodide is a marker for dead cells. […] (See, FIG. 6)

[2] = tested on: MDA-MB-231 breast cancer cells; assay: Cancer cell invasion assay (inserts); type: cell-based; conditions: Homo sapiens, 24 hours pretreatment, 24 hours invasion, estimated, read-out: IC50, inhibition of invasive phenotype
Method: MDA-MB-231 cells were pretreated with indicated concentrations of (−)-trans-3-(5,6-dihydro-4H-pyrrolo[3,2,1-ij]quinolin-1-yl)-4-(1H-indol-3-yl)pyrrolidine-2,5-dione for 24 hours. 300 μl of each cell suspension (at a concentration 0.5×10^6 cells/mL in serum free medium) was placed in individual inserts and incubated for 24 hours at 37° C. The bottom wells housing the inserts contained […] of 10% FBS containing medium. […] Each insert was then transferred to a clean well containing cell stain solution and incubated for 10 minutes at room temperature. The bottom of the insert was destained by incubating in extraction solution and OD was measured at 560 nm. (−)-trans-3-(5,6-dihydro-4H-pyrrolo[3,2,1-ij]quinolin-1-yl)-4-(1H-indol-3-yl)pyrrolidine-2,5-dione inhibited the migration across interstices in confluent cultures of MDA-MB-231 cancer cells. The data represent the mean of two independent experiments. (See FIG. 7)

[3] = tested on: HT-29 human colon cancer cells; assay: Human colon cancer xenograft; type: in vivo, female athymic nude mice; conditions: for optimal tumor growth inhibition: 20 treatments
Method: In a human colon cancer xenograft model HT-29 human colon cancer cells were inoculated subcutaneously into female athymic nude mice (5×10^6 cells/mouse) and allowed to form palpable tumors. Once the tumors reached approximately 60 mm^3, the animals were treated orally with either (−)-trans-3-(5,6-dihydro-4H-pyrrolo[3,2,1-ij]quinolin-1-yl)-4-(1H-indol-3-yl)pyrrolidine-2,5-dione at 200 mg/kg or 300 mg/kg, or vehicle control daily (5 consecutive days, followed by a 2 day dosing holiday). (−)-trans-3-(5,6-dihydro-4H-pyrrolo[3,2,1-ij]quinolin-1-yl)-4-(1H-indol-3-yl)pyrrolidine-2,5-dione was formulated in PEG 400:20% Vitamin E TPGS (60:40). The animals received a total of 20 treatments of either (−)-trans-3-(5,6-dihydro-4H-pyrrolo[3,2,1-ij]quinolin-1-yl)-4-(1H-indol-3-yl)pyrrolidine-2,5-dione or vehicle control. Tumors were measured throughout treatment and the post-treatment observation period. Each point represents the mean±SEM often tumors. (See, FIG. 9, Panel A)

Pim-1 = Pim-1 (Homo sapiens, UniProt P11309); assay: Kinase panel inhibition, Pim-1; type: biochemical
Method: (−)-trans-3-(5,6-dihydro-4H-pyrrolo[3,2,1-ij]quinolin-1-yl)-4-(1H-indol-3-yl)pyrrolidine-2,5-dione was assessed for its activity to inhibit a large panel (n=230) of human kinases.

phospho-c-Met = molecular target: T1, phospho-c-Met (Homo sapiens, UniProt P08581); assay: Phospho-c-Met in HT-29 xenograft tumors (immunohistochemistry, Western blotting); type: in vivo, mice; conditions: single dose 300 mg/kg, 24 hours later
T1 construct: from tissue; host or cells: HT-29 xenograft tumour in mice
Method: A human colon cancer xenograft model with HT-29 human colon cancer cells was established as described in Example 23. The tumor-bearing mice were treated with a single dose of (−)-trans-3-(5,6-dihydro-4H-pyrrolo[3,2,1-ij]quinolin-1-yl)-4-(1H-indol-3-yl)pyrrolidine-2,5-dione (300 mg/kg). The reduction of phospho-c-Met was detected immunohistochemically 24 hours later. […] Western blotting of the tumor sample for phospho-c-Met confirmed the immunohistochemical analysis (FIG. 11, Panel B).

c-Met = c-Met (Homo sapiens, UniProt P08581); assay: c-Met in tumor biopsies from treated patients; type: in vivo; design: the c-Met protein in tumor biopsies from patients; from tissue; host or cells: tumour biopsies from treated patients; conditions: patients treated with the drug
c-Met, sequence (P08581 25-1390): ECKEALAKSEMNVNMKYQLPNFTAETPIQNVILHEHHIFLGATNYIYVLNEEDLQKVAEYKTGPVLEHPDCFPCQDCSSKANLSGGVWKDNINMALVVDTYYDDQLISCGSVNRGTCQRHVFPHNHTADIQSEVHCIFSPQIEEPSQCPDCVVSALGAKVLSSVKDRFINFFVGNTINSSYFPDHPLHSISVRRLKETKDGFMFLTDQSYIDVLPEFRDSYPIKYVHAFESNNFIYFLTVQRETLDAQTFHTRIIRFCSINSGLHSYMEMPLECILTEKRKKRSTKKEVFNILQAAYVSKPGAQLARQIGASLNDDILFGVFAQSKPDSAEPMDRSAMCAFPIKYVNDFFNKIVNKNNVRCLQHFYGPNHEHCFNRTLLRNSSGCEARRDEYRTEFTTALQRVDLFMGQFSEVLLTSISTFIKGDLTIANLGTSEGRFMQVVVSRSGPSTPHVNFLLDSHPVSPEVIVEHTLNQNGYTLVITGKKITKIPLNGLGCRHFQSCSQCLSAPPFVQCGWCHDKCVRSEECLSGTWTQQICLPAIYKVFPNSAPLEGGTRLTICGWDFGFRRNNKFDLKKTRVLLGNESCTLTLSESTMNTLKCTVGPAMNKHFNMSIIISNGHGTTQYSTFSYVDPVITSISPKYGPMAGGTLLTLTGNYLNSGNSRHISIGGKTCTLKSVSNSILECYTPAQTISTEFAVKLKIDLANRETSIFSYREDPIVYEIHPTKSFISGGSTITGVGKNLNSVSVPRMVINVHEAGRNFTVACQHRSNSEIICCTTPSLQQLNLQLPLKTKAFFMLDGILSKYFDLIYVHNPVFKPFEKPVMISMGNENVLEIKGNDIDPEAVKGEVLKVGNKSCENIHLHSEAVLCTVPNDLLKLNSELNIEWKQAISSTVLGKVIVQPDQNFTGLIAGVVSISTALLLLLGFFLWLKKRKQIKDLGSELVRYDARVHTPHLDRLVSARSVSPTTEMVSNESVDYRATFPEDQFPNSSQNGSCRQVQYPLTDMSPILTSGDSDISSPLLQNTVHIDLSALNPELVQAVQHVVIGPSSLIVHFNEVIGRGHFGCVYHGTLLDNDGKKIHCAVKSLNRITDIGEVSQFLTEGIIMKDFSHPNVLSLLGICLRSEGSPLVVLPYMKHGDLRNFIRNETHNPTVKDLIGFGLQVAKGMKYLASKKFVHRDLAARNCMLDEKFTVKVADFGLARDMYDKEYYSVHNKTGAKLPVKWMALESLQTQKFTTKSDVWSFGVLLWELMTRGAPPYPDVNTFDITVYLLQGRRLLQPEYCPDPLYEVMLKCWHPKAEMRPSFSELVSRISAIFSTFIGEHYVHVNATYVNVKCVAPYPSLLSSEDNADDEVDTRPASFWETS

Pim-1, sequence (P11309 whole entry): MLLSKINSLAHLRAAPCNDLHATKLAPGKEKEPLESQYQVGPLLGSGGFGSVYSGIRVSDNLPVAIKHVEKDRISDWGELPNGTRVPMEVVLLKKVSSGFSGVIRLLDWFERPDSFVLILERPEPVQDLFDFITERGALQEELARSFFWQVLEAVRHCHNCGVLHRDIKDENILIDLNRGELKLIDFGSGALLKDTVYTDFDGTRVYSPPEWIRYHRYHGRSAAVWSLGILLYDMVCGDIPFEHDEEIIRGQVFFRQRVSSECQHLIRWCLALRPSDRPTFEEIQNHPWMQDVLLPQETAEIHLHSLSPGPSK
T1 sequence (P08581 25-1390): as the sequence (P08581 25-1390) above

pIC50 [2]: ~6.30
pIC50 (Pim-1): 5.00
inhibition at 10 µM (Pim-1; 10 μM): 33%
Structure (SMILES): O=C1NC(=O)[C@@H](c2cn3c4c(cccc24)CCC3)[C@@H]1c1c[nH]c2ccccc12 (single isomer, unassigned) [(−)-trans-3-(5,6-dihydro-4H-pyrrolo[3,2,1-ij]quinolin-1-yl)-4-(1H-indol-3-yl)pyrrolidine-2,5-dione]
pIC50 (MDA-MB-231 cells): 6.21
apoptosis (Annexin V staining) [1]: induced cells to undergo apoptosis
cells co-stained with both Annexin V and propidium iodide (dead cells) [1]: 10-20%
optimal tumor growth inhibition ([3]; 200 mg/kg orally, p=0.006): 39%
optimal tumor growth inhibition ([3]; 300 mg/kg orally, p=0.00001): 55%
change in body weight ([3]; oral administration at 200 mg/kg or 300 mg/kg): no significant change in body weight
amount of phospho-c-Met in tumor (phospho-c-Met): significant decrease in the amount of phospho-c-Met
inhibition of c-Met protein in tumor biopsies (c-Met): ability to inhibit the c-Met protein in tumor biopsies
